Data reported in patent publication US8957093B2, “N-biphenylmethylindole modulators of PPARG” (The Scripps Research Institute, priority 2011, dated 2015).
Like-named read-outs stand apart in the source and are kept apart here.

Legend:
GST-PPARG-LBD = GST-PPARG-LBD (Homo sapiens (Human), UniProt P37231); experiment: Lanthascreen PPARG competitive binding assay (Invitrogen, TR-FRET); conditions: NA = not active, inc = incomplete curve, read-out: IC50 (nM) Lantha
Procedure, shortened: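 Values are fold change in 520 nm/490 nm FRET ratio relative to a 2% DMSO no-ligand control, excitation 340 nm. Compound dilutions starting at 10 μM competed against 5 nM Fluormone Pan-PPAR Green for GST-PPARG-LBD bound by 5 nM Tb anti-GST antibody. Incubation 2 h in the dark in assay buffer C, triplicate wells.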

[1] = target: Gal-4-PPAR (human PPAR LBD fused to GAL4 DNA-binding domain) (Homo sapiens (Human), UniProt P37231); experiment: GAL4-PPARG LBD / UAS-luciferase transactivation assay in HEK 293T cells; assay type: cell-based
[2] = Lanthascreen competitive binding
[3] = GAL4 transactivation, HEK 293T cells; NA = not active; read-out: EC50 (nM) GAL4
[4] = HEK-293T, 18 h; read-out: % transactivation at 10 μM (GAL4)
[5] = Lanthascreen PPARG competitive binding
[6] = GAL4 transactivation; read-out: EC50 (nM) GAL4
[7] = HEK-293T, 18 h, read-out: % transactivation at 10 μM (GAL4)

Chain of Gal-4-PPAR (human PPAR LBD fused to GAL4 DNA-binding domain) (P37231 238-503): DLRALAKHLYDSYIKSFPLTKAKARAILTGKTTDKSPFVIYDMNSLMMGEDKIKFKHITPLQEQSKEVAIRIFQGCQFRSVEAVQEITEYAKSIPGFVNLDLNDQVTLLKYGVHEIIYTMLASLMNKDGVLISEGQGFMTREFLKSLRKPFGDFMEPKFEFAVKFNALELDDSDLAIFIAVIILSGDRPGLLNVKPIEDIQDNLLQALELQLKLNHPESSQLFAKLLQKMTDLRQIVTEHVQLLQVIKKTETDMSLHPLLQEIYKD
Chain of GST-PPARG-LBD (P37231 238-503): as above

EC50 [1, 3]	activation at 10 µM [1, 7]	SMILES	IC50 (GST-PPARG-LBD; [2])	activation at 10 µM [1, 4]	EC50 [1]	IC50 (GST-PPARG-LBD; [5])	EC50 [1, 6]
4160 nM	–	Cc1c(C)n(Cc2ccc(-c3ccccc3C(=O)O)cc2)c2ccc(C(=O)N[C@@H](C)c3ccc(OC(F)(F)F)cc3)cc12 [Example 153, (S)-4′-((2,3-dimethyl-5-((1-(4-(trifluoromethoxy)phenyl)ethyl)carbamoyl)-1H-indol-1-yl)methyl)-[1,1′-biphenyl]-2-carboxylic acid]	28 nM	25%	–	–	–
–	–	Cc1c(C)n(Cc2ccc(-c3ccccc3-c3noc(=O)[nH]3)cc2)c2ccc(C(=O)N[C@@H](C)c3cccc(C(C)C)c3)cc12 [Example 244, (S)—N-(1-(3-isopropylphenyl)ethyl)-2,3-dimethyl-1-((2′-(5-oxo-4,5-dihydro-1,2,4-oxadiazol-3-yl)-[1,1′-biphenyl]-4-yl)methyl)-1H-indole-5-carboxamide]	40 nM	8%	921 nM	–	–
–	–	CNC(=O)c1ccccc1-c1ccc(Cn2c(C)c(C)c3cc(C(=O)N[C@@H](C)c4cccc(C(C)C)c4)ccc32)cc1 [Example 311, (S)—N-(1-(3-Isopropylphenyl)ethyl)-2,3-dimethyl-1-((2′-(methylcarbamoyl)-[1,1′-biphenyl]-4-yl)methyl)-1H-indole-5-carboxamide]	–	10%	–	76 nM	441 nM
–	–	Cc1c(C)n(Cc2ccc(-c3ccccc3C(=O)N(C)C)cc2)c2ccc(C(=O)N[C@@H](C)c3cccc(C(C)C)c3)cc12 [Example 312, (S)-1-((2′-(Dimethylcarbamoyl)-[1,1′-biphenyl]-4-yl)methyl)-N-(1-(3-isopropylphenyl)ethyl)-2,3-dimethyl-1H-indole-5-carboxamide]	–	10%	–	148 nM	914 nM
1300 nM	–	Cc1c(C)n(Cc2ccc(-c3ccccc3C(=O)O)cc2)c2ccc(C(=O)N[C@@H](C)[C@@H]3CCN(C(=O)OCc4ccccc4)C3)cc12 [Example 240, 4′-((5-(((S)-1-((R)-1-((benzyloxy)carbonyl)pyrrolidin-3-yl)ethyl)carbamoyl)-2,3-dimethyl-1H-indol-1-yl)methyl)-[1,1′-biphenyl]-2-carboxylic acid]	58 nM	25%	–	–	–
–	–	Cc1c(C)n(Cc2ccc(-c3ccccc3C(=O)O)cc2)c2ccc(C(=O)N[C@@H](C)c3cccc(C4CC4)n3)cc12 [Example 274, (S)-4′-((5-(1-(6-cyclopropylpyridin-2-yl)ethylcarbamoyl)-2,3-dimethyl-1H-indol-1-yl)methyl)biphenyl-2-carboxylic acid]	–	30%	–	19 nM	159 nM
618 nM	25%	CCOc1cccc([C@H](C)NC(=O)c2ccc3c(c2)c(C)c(C)n3Cc2ccc(-c3ccccc3C(=O)O)cc2)c1 [Example 151, (S)-4′-((5-((1-(3-ethoxyphenyl)ethyl)carbamoyl)-2,3-dimethyl-1H-indol-1-yl)methyl)-[1,1′-biphenyl]-2-carboxylic acid]	21 nM	–	–	–	–
709 nM	20%	Cc1c(C)n(Cc2ccc(-c3ccccc3C(=O)O)cc2)c2ccc(C(=O)N[C@@H](C)c3cccc(C(F)(F)F)c3Cl)cc12 [Example 230, (S)-4′-((5-((1-(2-Chloro-3-(trifluoromethyl)phenyl)ethyl)carbamoyl)-2,3-dimethyl-1H-indol-1-yl)methyl)-[1,1′-biphenyl]-2-carboxylic acid]	103 nM	–	–	–	–
455 nM	–	COc1cc(F)cc([C@H](C)NC(=O)c2ccc3c(c2)c(C)c(C)n3Cc2ccc(-c3ccccc3C(=O)O)cc2)c1 [Example 146, (S)-4′-((5-((1-(3-fluoro-5-methoxyphenyl)ethyl)carbamoyl)-2,3-dimethyl-1H-indol-1-yl)methyl)-[1,1′-biphenyl]-2-carboxylic acid]	12 nM	30%	–	–	–
–	–	Cc1c(C)n(Cc2ccc(-c3ccccc3C(=O)O)cc2)c2ccc(C(=O)N[C@@H](C)c3cc(C(F)(F)F)ccc3Cl)cc12 [Example 302, (S)-4′-((5-((1-(2-Chloro-5-(trifluoromethyl)phenyl)ethyl)carbamoyl)-2,3-dimethyl-1H-indol-1-yl)methyl)-[1,1′-biphenyl]-2-carboxylic acid]	–	20%	–	3 nM	48 nM
507 nM	–	Cc1c(C)n(Cc2ccc(-c3ccccc3C(=O)O)cc2)c2ccc(C(=O)NCc3ccc(Cl)cc3C(F)(F)F)cc12 [Example 165, 4′-((5-((4-chloro-2-(trifluoromethyl)benzyl)carbamoyl)-2,3-dimethyl-1H-indol-1-yl)methyl)-[1,1′-biphenyl]-2-carboxylic acid]	2 nM	15%	–	–	–
–	–	Cc1c(C)n(Cc2ccc(-c3ccccc3C(=O)O)cc2)c2ccc(C(=O)N[C@@H](C)c3cc(F)c(F)cc3F)cc12 [Example 301, (S)-4′-((2,3-Dimethyl-5-((1-(2,4,5-trifluorophenyl)ethyl)carbamoyl)-1H-indol-1-yl)methyl)-[1,1′-biphenyl]-2-carboxylic acid]	–	40%	–	8 nM	198 nM
189 nM	–	Cc1c(C)n(Cc2ccc(-c3ccccc3C(=O)O)cc2)c2ccc(C(=O)N[C@@H](C)c3cccc4c3OCO4)cc12 [Example 143, (S)-4′-((5-((1-(benzo[d][1,3]dioxol-4-yl)ethyl)carbamoyl)-2,3-dimethyl-1H-indol-1-yl)methyl)-[1,1′-biphenyl]-2-carboxylic acid]	10 nM	45%	–	–	–
37 nM	30%	Cc1c(C)n(Cc2ccc(-c3ccccc3C(=O)O)cc2)c2ccc(C(=O)N[C@H](C)c3c(F)ccc(F)c3F)cc12 [Example 235, (R)-4′-((2,3-dimethyl-5-((1-(2,3,6-trifluorophenyl)ethyl)carbamoyl)-1H-indol-1-yl)methyl)-[1,1′-biphenyl]-2-carboxylic acid]	3 nM	–	–	–	–
293 nM	20%	Cc1c(C)n(Cc2ccc(-c3ccccc3C(=O)O)cc2)c2ccc(C(=O)N[C@@H](C)c3c(F)ccc(F)c3F)cc12 [Example 236, (S)-4′-((2,3-dimethyl-5-((1-(2,3,6-trifluorophenyl)ethyl)carbamoyl)-1H-indol-1-yl)methyl)-[1,1′-biphenyl]-2-carboxylic acid]	17 nM	–	–	–	–

SMILES	EC50 [1, 3]	activation at 10 µM [1, 7]	IC50 (GST-PPARG-LBD; [2])	activation at 10 µM [1, 4]	EC50 [1]	IC50 (GST-PPARG-LBD; [5])	EC50 [1, 6]
Cc1c(C)n(Cc2ccc(-c3ccccc3C(=O)O)cc2)c2ccc(C(=O)N[C@@H](C)c3ccc(Br)cn3)cc12 [Example 260, (S)-4′-((5-((1-(5-bromopyridin-2-yl)ethyl)carbamoyl)-2,3-dimethyl-1H-indol-1-yl)methyl)-[1,1′-biphenyl]-2-carboxylic acid]	42 nM	–	2 nM	25%	–	–	–
Cc1c(C)n(Cc2ccc(-c3ccccc3C(=O)O)cc2)c2ccc(C(=O)N[C@H](C)c3cccc(Br)n3)cc12 [Example 271, (R)-4′-((5-(1-(6-bromopyridin-2-yl)ethylcarbamoyl)-2,3-dimethyl-1H-indol-1-yl)methyl)biphenyl-2-carboxylic acid]	52 nM	–	2 nM	20%	–	–	–
Cc1c(C)n(Cc2ccc(-c3ccccc3C(=O)O)cc2)c2ccc(C(=O)N[C@@H](C)c3cc(C4CC4)ccn3)cc12 [Example 266, (S)-4′-((5-((1-(4-cyclopropylpyridin-2-yl)ethyl)carbamoyl)-2,3-dimethyl-1H-indol-1-yl)methyl)-[1,1′-biphenyl]-2-carboxylic acid]	588 nM	–	8 nM	25%	–	–	–
COc1cc(C(F)(F)F)ccc1[C@H](C)NC(=O)c1ccc2c(c1)c(C)c(C)n2Cc1ccc(-c2ccccc2C(=O)O)cc1 [Example 223, (S)-4′-((5-((1-(2-methoxy-4-(trifluoromethyl)phenyl)ethyl)carbamoyl)-2,3-dimethyl-1H-indol-1-yl)methyl)-[1,1′-biphenyl]-2-carboxylic acid]	676 nM	–	73 nM	10%	–	–	–
Cc1ccc(F)c([C@H](C)NC(=O)c2ccc3c(c2)c(C)c(C)n3Cc2ccc(-c3ccccc3C(=O)O)cc2)c1 [Example 211, (S)-4′-((5-((1-(2-fluoro-5-methylphenyl)ethyl)carbamoyl)-2,3-dimethyl-1H-indol-1-yl)methyl)-[1,1′-biphenyl]-2-carboxylic acid]	251 nM	–	6 nM	20%	–	–	–
CCc1ccc([C@H](C)NC(=O)c2ccc3c(c2)c(C)c(C)n3Cc2ccc(-c3ccccc3C(=O)O)cc2)cc1 [Example 225, (S)-4′-((5-((1-(4-ethylphenyl)ethyl)carbamoyl)-2,3-dimethyl-1H-indol-1-yl)methyl)-[1,1′-biphenyl]-2-carboxylic acid]	1130 nM	–	43 nM	20%	–	–	–
Cc1c(C)n(Cc2ccc(-c3ccccc3C(=O)O)cc2)c2ccc(C(=O)N[C@@H](C)C3CCN(C(=O)OCc4ccccc4)CC3)cc12 [Example 202, (S)-4′-((5-((1-(1-((benzyloxy)carbonyl)piperidin-4-yl)ethyl)carbamoyl)-2,3-dimethyl-1H-indol-1-yl)methyl)-[1,1′-biphenyl]-2-carboxylic acid]	1750 nM	–	35 nM	40%	–	–	–
COc1ccc(F)cc1[C@@H](C)NC(=O)c1ccc2c(c1)c(C)c(C)n2Cc1ccc(-c2ccccc2C(=O)O)cc1 [Example 205, (R)-4′-((5-((1-(5-fluoro-2-methoxyphenyl)ethyl)carbamoyl)-2,3-dimethyl-1H-indol-1-yl)methyl)-[1,1′-biphenyl]-2-carboxylic acid]	637 nM	–	5 nM	20%	–	–	–
